Values joined by “and” are separate entries in the source; they are usually repeats but may differ in a detail not shown here. Identical values can stand only once.

These results are taken from ChEMBL document CHEMBL1134882, “Preparation of chiral 4-benzyloxymethyldihydrofuran-2-one using lipase-catalyzed kinetic resolution: synthesis of (-)-virginiae butanolide C (VB C)” (Bioorg Med Chem Lett, 2002).

In test [1] the test system is Burkholderia cepacia. Kind of test: Kinetic resolution by Lipase PS from Pseudomonas cepacia, catalyzed acylation by using Isopropenyl acetate.
The test system of test [2] is Burkholderia cepacia. Kind of test: Kinetic resolution by Lipase PS from Pseudomonas cepacia, catalyzed acylation by using Phenyl acetate.
Test [3] concerns Burkholderia cepacia. Kind of test: Kinetic resolution by Lipase PS from Pseudomonas cepacia, catalyzed acylation by using Succinic anhydride.
For test [4], the system named is Burkholderia cepacia. Kind of test: Kinetic resolution by Lipase PS from Pseudomonas cepacia, catalyzed acylation by using Vinyl acetate.

Regarding `CCN(CC)C(=O)C[C@H](CO)COCc1ccccc1`, the TIME in test [1] was 9 h; in test [2] it was 3 h and 2 h; in test [3], 4 h; in test [4], 2 h.
For `CN(C)C(=O)C[C@H](CO)COCc1ccccc1`, the TIME in test [2] is 2 h; in test [3], 8 h.
Consider `O=C(C[C@@H](CO)COCc1ccccc1)NCc1ccccc1`, for which, in test [2], the TIME was determined as 10 h.
On to `CCNC(=O)C[C@@H](CO)COCc1ccccc1`, for which the TIME in test [2] is 1 h; in test [3], 5 h.
Compound `CNC(=O)C[C@@H](CO)COCc1ccccc1` showed a TIME in test [2] of 12 h.
